{"source": "the supplement of paper PMC11208160"}
{"experiment": "recombinant barcode read abundance after kanamycin selection (control-corrected) (log10(CPM+1)); higher = more efficient recombination; sequences stand for … in AGTGCAGAGAAAATCGGCCAGTTTTCTCTGCCTGCAGTCCGCATGCCGT…AGATTTATGCAGCGGACTGCCTTTCTCCCAAAGTGATAAACCGGACAGTATCATGGACCGGTTTTCCCGGTAATCCGTATTTGCAAGGTTGGTTTCACT; site = the 11-nt target", "summary_of_the_method": "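This pooled E. coli screen matched targets with IS621 bridge RNA target-binding loops. Plating was done in duplicate on chloramphenicol/ampicillin LB agar as a control and on chloramphenicol/ampicillin/kanamycin plus 0.1 mM IPTG. Recombination efficiency reflects barcode counts at recombinant junctions as counts per million, averaged and control-corrected. The figures are log10(CPM+1).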"}
{"sequence": "CCGGGTACTTGGGTTCTAACCTGTTGCCG (site AGCAACCCTTT)", "recombinant barcode read abundance (log10)": 0.0127}
{"sequence": "CCGGGTACTTGGGTTCTAACCTGTTGCCG (site CCGGGTACTCG)", "recombinant barcode read abundance (log10)": 1.66}
{"sequence": "CCGGTGACTTGGGTTCTAACCTGTTGCCT (site ACGGTGACTAG)", "recombinant barcode read abundance (log10)": 0.0889}
{"sequence": "CCGGTGACTTGGGTTCTAACCTGTTGCCT (site CCGGTGACTAG)", "recombinant barcode read abundance (log10)": 0.743}
{"sequence": "CCGGTGACTTGGGTTCTAACCTGTTGCCT (site GCGGTGACTAG)", "recombinant barcode read abundance (log10)": 0.146}
{"sequence": "CCGGTGACTTGGGTTCTAACCTGTTGCCT (site TCGGTGACTAG)", "recombinant barcode read abundance (log10)": 0.0596}
{"sequence": "CCGGTTGCTTGGGTTCTAACCTGTTGCCT (site CCGGATTCTAG)", "recombinant barcode read abundance (log10)": 0.0357}
{"sequence": "CCGGTTGCTTGGGTTCTAACCTGTTGCCT (site CCGGTTGCTAG)", "recombinant barcode read abundance (log10)": 2.76}
{"sequence": "CCGTCTACTTGGGTTCTAACCTGTTGCTT (site CCGTCTACTAA)", "recombinant barcode read abundance (log10)": 0.107}
{"sequence": "CCGTCTACTTGGGTTCTAACCTGTTGCTT (site CCGTCTACTCA)", "recombinant barcode read abundance (log10)": 0.457}
{"sequence": "CCGTCTACTTGGGTTCTAACCTGTTGCTT (site CCGTCTACTGA)", "recombinant barcode read abundance (log10)": 0.0444}
{"sequence": "CCGTCTACTTGGGTTCTAACCTGTTGCTT (site CCGTCTACTTA)", "recombinant barcode read abundance (log10)": 0.201}
{"sequence": "CCGTGAACTTGGGTTCTAACCTGTTGCCT (site CAGTGAACTAG)", "recombinant barcode read abundance (log10)": 0.0153}
{"sequence": "CCGTGAACTTGGGTTCTAACCTGTTGCCT (site CCGTGAACTAG)", "recombinant barcode read abundance (log10)": 0.275}
{"sequence": "CCGTGAACTTGGGTTCTAACCTGTTGCCT (site CGGTGAACTAG)", "recombinant barcode read abundance (log10)": 0.0382}
{"sequence": "CCGTGAACTTGGGTTCTAACCTGTTGCCT (site CTGTGAACTAG)", "recombinant barcode read abundance (log10)": 0.163}
{"sequence": "CCGTGGACTTGGGTTCTAACCTGTTGCCA (site CAGGGGACTTG)", "recombinant barcode read abundance (log10)": 0.111}
{"sequence": "CCGTGGACTTGGGTTCTAACCTGTTGCCA (site CCGTGGACTTG)", "recombinant barcode read abundance (log10)": 0.42}
{"sequence": "CCTAAACCTTGGGTTCTAACCTGTTGCGT (site CCTAAACCTAC)", "recombinant barcode read abundance (log10)": 1.63}
{"sequence": "CCTAAACCTTGGGTTCTAACCTGTTGCGT (site CCTAACCCTAC)", "recombinant barcode read abundance (log10)": 0.0278}
{"sequence": "CCTAAACCTTGGGTTCTAACCTGTTGCGT (site CCTAAGCCTAC)", "recombinant barcode read abundance (log10)": 0.03}
{"sequence": "CCTAAACCTTGGGTTCTAACCTGTTGCGT (site CCTAATCCTAC)", "recombinant barcode read abundance (log10)": 0.0605}
{"sequence": "CCTAACACTTGGGTTCTAACCTGTTGCCT (site ACTAACACTAG)", "recombinant barcode read abundance (log10)": 0.0635}
{"sequence": "CCTAACACTTGGGTTCTAACCTGTTGCCT (site CCTAACACTAG)", "recombinant barcode read abundance (log10)": 0.501}
{"sequence": "CCTAACACTTGGGTTCTAACCTGTTGCCT (site GCTAACACTAG)", "recombinant barcode read abundance (log10)": 0.0372}
{"sequence": "CCTAACACTTGGGTTCTAACCTGTTGCCT (site TCTAACACTAG)", "recombinant barcode read abundance (log10)": 0.114}
{"sequence": "CCTACACCTTGGGTTCTAACCTGTTGCCT (site CCTACAACTAG)", "recombinant barcode read abundance (log10)": 0.0638}
{"sequence": "CCTACACCTTGGGTTCTAACCTGTTGCCT (site CCTACACCTAG)", "recombinant barcode read abundance (log10)": 0.928}
{"sequence": "CCTACACCTTGGGTTCTAACCTGTTGCCT (site CCTACAGCTAG)", "recombinant barcode read abundance (log10)": 0.0384}
{"sequence": "CCTACACCTTGGGTTCTAACCTGTTGCCT (site CCTACATCTAG)", "recombinant barcode read abundance (log10)": 0.52}
{"sequence": "CCTAGACCTTGGGTTCTAACCTGTTGCCT (site CCTAGAACTAG)", "recombinant barcode read abundance (log10)": 0.067}
{"sequence": "CCTAGACCTTGGGTTCTAACCTGTTGCCT (site CCTAGACCTAG)", "recombinant barcode read abundance (log10)": 0.771}
{"sequence": "CCTAGACCTTGGGTTCTAACCTGTTGCCT (site CCTAGAGCTAG)", "recombinant barcode read abundance (log10)": 0.201}
{"sequence": "CCTAGACCTTGGGTTCTAACCTGTTGCCT (site CCTAGATCTAG)", "recombinant barcode read abundance (log10)": 0.312}
{"sequence": "CCTAGCACTTGGGTTCTAACCTGTTGCGA (site CCTAGCACTTC)", "recombinant barcode read abundance (log10)": 0.939}
{"sequence": "CCTAGCACTTGGGTTCTAACCTGTTGCGA (site CCTCGCACTTC)", "recombinant barcode read abundance (log10)": 0.0896}
{"sequence": "CCTAGCACTTGGGTTCTAACCTGTTGCGA (site CCTGGCACTTC)", "recombinant barcode read abundance (log10)": 0.0943}
{"sequence": "CCTAGCACTTGGGTTCTAACCTGTTGCGA (site CCTTGCACTTC)", "recombinant barcode read abundance (log10)": 0.0494}
{"sequence": "CCTATAGCTTGGGTTCTAACCTGTTGCTT (site CCTATAGCTAA)", "recombinant barcode read abundance (log10)": 0.0878}
{"sequence": "CCTATAGCTTGGGTTCTAACCTGTTGCTT (site GAGTCTACTTG)", "recombinant barcode read abundance (log10)": 0.0203}
{"sequence": "CCTCAGGCTTGGGTTCTAACCTGTTGCCT (site CCTCAGGCTAG)", "recombinant barcode read abundance (log10)": 0.106}
{"sequence": "CCTCAGGCTTGGGTTCTAACCTGTTGCCT (site CCTCAGGCTCG)", "recombinant barcode read abundance (log10)": 0.0672}
{"sequence": "CCTCAGGCTTGGGTTCTAACCTGTTGCCT (site CCTCAGGCTGG)", "recombinant barcode read abundance (log10)": 0.107}
{"sequence": "CCTCAGGCTTGGGTTCTAACCTGTTGCCT (site CCTCAGGCTTG)", "recombinant barcode read abundance (log10)": 0.204}
{"sequence": "CCTCAGTCTTGGGTTCTAACCTGTTGCTT (site CCTCAATCTAA)", "recombinant barcode read abundance (log10)": 0.441}
{"sequence": "CCTCAGTCTTGGGTTCTAACCTGTTGCTT (site CCTCACTCTAA)", "recombinant barcode read abundance (log10)": 0.0235}
{"sequence": "CCTCAGTCTTGGGTTCTAACCTGTTGCTT (site CCTCAGTCTAA)", "recombinant barcode read abundance (log10)": 1.68}
{"sequence": "CCTCAGTCTTGGGTTCTAACCTGTTGCTT (site CCTCATTCTAA)", "recombinant barcode read abundance (log10)": 0.122}
{"sequence": "CCTCGAGCTTGGGTTCTAACCTGTTGCGG (site CCTCGAGCTCC)", "recombinant barcode read abundance (log10)": 1.86}
{"sequence": "CCTCGAGCTTGGGTTCTAACCTGTTGCGG (site TCTAGAGCTCC)", "recombinant barcode read abundance (log10)": 0.184}
{"sequence": "CCTCGCACTTGGGTTCTAACCTGTTGCGA (site CCTAGCACTTC)", "recombinant barcode read abundance (log10)": 0.126}
{"sequence": "CCTCGCACTTGGGTTCTAACCTGTTGCGA (site CCTCGCACTTC)", "recombinant barcode read abundance (log10)": 0.112}
{"sequence": "CCTCGCACTTGGGTTCTAACCTGTTGCGA (site CCTGGCACTTC)", "recombinant barcode read abundance (log10)": 0.0155}
{"sequence": "CCTCGCACTTGGGTTCTAACCTGTTGCGA (site CCTTGCACTTC)", "recombinant barcode read abundance (log10)": 0.0861}
{"sequence": "CCTCGCGCTTGGGTTCTAACCTGTTGCCT (site CCTAACGCTAG)", "recombinant barcode read abundance (log10)": 0.822}
{"sequence": "CCTCGCGCTTGGGTTCTAACCTGTTGCCT (site CCTCGCGCTAG)", "recombinant barcode read abundance (log10)": 0.354}
{"sequence": "CCTCGGACTTGGGTTCTAACCTGTTGCAT (site CATCGTACTAT)", "recombinant barcode read abundance (log10)": 0.0825}
{"sequence": "CCTCGGACTTGGGTTCTAACCTGTTGCAT (site CCTCGGACTAT)", "recombinant barcode read abundance (log10)": 1.59}
{"sequence": "CCTGATTCTTGGGTTCTAACCTGTTGCCT (site CCTGAATCTAG)", "recombinant barcode read abundance (log10)": 0.0629}
{"sequence": "CCTGATTCTTGGGTTCTAACCTGTTGCCT (site CCTGACTCTAG)", "recombinant barcode read abundance (log10)": 0.113}
{"sequence": "CCTGATTCTTGGGTTCTAACCTGTTGCCT (site CCTGAGTCTAG)", "recombinant barcode read abundance (log10)": 0.107}
{"sequence": "CCTGATTCTTGGGTTCTAACCTGTTGCCT (site CCTGATTCTAG)", "recombinant barcode read abundance (log10)": 0.322}
{"sequence": "CCTGGACCTTGGGTTCTAACCTGTTGCTT (site CCTGGACCTAA)", "recombinant barcode read abundance (log10)": 1.87}
{"sequence": "CCTGGACCTTGGGTTCTAACCTGTTGCTT (site CCTGGTCCTAT)", "recombinant barcode read abundance (log10)": 0}
{"sequence": "CCTGGCACTTGGGTTCTAACCTGTTGCGA (site CCTAGCACTTC)", "recombinant barcode read abundance (log10)": 1.45}
{"sequence": "CCTGGCACTTGGGTTCTAACCTGTTGCGA (site CCTCGCACTTC)", "recombinant barcode read abundance (log10)": 0.0518}
